The assay has as its target CHI3L1/galectin-3 (CHI3L1-His and galectin-3-GST) (Homo sapiens, UniProt P36222). Description: AlphaLISA, inhibition of CHI3L1/galectin-3 interaction. Conditions: read-out: % inhibition at 100 μM. It counts as biochemical. On the technique in general: Bead proximity is the source of the signal in Alpha formats.

Sequence of CHI3L1/galectin-3 (CHI3L1-His and galectin-3-GST) (P36222 22-383): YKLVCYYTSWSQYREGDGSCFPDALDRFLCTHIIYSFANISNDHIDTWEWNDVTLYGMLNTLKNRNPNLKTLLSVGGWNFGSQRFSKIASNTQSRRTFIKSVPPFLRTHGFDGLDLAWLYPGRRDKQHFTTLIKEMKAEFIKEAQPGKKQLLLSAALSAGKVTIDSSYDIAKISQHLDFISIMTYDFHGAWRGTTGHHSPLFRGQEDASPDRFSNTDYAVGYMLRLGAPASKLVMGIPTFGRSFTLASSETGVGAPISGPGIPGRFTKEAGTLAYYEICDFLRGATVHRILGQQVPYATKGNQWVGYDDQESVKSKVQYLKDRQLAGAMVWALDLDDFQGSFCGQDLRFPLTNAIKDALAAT
Sequence of CHI3L1/galectin-3 (CHI3L1-His and galectin-3-GST) (P17931 2-250 partner): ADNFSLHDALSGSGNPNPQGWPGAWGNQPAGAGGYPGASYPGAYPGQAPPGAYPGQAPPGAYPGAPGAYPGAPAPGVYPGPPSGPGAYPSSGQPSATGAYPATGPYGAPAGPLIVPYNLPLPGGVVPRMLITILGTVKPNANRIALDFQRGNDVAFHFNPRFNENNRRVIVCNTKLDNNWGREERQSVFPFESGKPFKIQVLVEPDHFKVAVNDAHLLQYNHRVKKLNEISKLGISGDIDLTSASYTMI

On to `CC(C)c1cccc(-c2ccc3ncn(C)c(=O)c3c2)c1` [3C13], for which the inhibition at 100 µM stood at 27.5 ± 3.1%.

In general, inhibition refers to the drop in the measured response relative to a control, in per cent.

The values above are taken from doi:10.1101/2025.08.13.670152v1 (biorxiv, 2025).
